Entries after “also recorded” stand apart in the source; their conditions may differ.
How the values were obtained:
HEY cells = assay: Cell cycle analysis (propidium iodide), SC21, HEY; assay type: cell-based, human; conditions: 72 hours
Method: FIG. 17 depicts flow cytometric analysis of the cell cycle profiles of DU145, PC3, MDA-MB-435, and HEY cells treated with SC21. […] SC21 induced a G0/G1 phase arrest in DU145 and MDA-MB-435 cells and S phase arrest in PC3 and HEY cells.
Cell cycle perturbations induced by SC21 and camptothecin (CPT) were analyzed by propidium iodide DNA staining. Briefly, exponentially growing PC3 and DU145 cells were treated with different doses of the drug for 24, 48, and 72 hours. At the end of each treatment time, cells were collected and washed with PBS after a gentle centrifugation at 200×g for 5 minutes. Cells were thoroughly resuspended in 0.5 mL of PBS and fixed in 70% ethanol for at least 2 hours at 4° C. Ethanol-suspended cells were then centrifuged at 200×g for 5 minutes and washed twice in PBS to remove residual ethanol. For cell cycle analysis, the pellets were suspended in 1 mL of PBS containing 0.02 mg/mL of propidiumiodide, 0.5 mg/mL of DNase-free RNase A and 0.1% of Triton X-100 and incubated at 37° C. for 30 minutes. Cell cycle profiles were obtained using a FACScan flowcytometer (Becton Dickinson, San Jose, Calif.) and data were analyzed by ModFit LT software (Verity Software House, Inc., Topsham, Me.).
It was noteworthy that SC21 induced S phase arrest in PC3 and HEY cell lines (FIG. 17).

UACC-257 melanoma cells = assay: Sensitivity of various cancer cells to SC144, UACC-257; assay type: cell-based; conditions: Homo sapiens
From the text: (§1) The studies were expanded to other cell lines. […] Subnanomolar to low nanomolar potency was also observed in HCT-116 and HT29 colon cancer cell lines (Table 2).

HT29 colon cancer cells = assay: Sensitivity of various cancer cells to SC144, HT29; assay type: cell-based; conditions: Homo sapiens, HT-29
From the text: as §1

[1] = system: EKVX non-small cell lung cancer cells; assay: Sensitivity of various cancer cells to SC144, EKVX; assay type: cell-based; conditions: Homo sapiens
From the text: as §1

SF-295 CNS cancer cells = assay: Sensitivity of various cancer cells to SC144, SF-295; assay type: cell-based; conditions: Homo sapiens
From the text: as §1

MDA-MB-435 xenografts = assay: Nude mice xenograft model of human breast MDA-MB-435 cells; assay type: in vivo
Method: FIG. 3. (A) is a schematic outline of tumor growth and dosing in xenograft models. […] Tumor growth was monitored for five weeks. Values represent the median tumor weight for each group.
After five-days of dosing, the drug treatment was discontinued and the animals were monitored bi-weekly for five weeks.
For statistical analysis, the % T/C value was calculated on the last day of dosing and is graphed for all of the treatment groups (FIG. 3C).
To evaluate the extent of tumor necrosis after drug treatment tumor samples were collected from control and treated mice on day 70.

With `O=C(NNC(=O)c1ccccc1O)C1=CC2C=CC=CC2C=C1O` (stereo not shown) [SC21] the “accumulation in S phase” value (HEY cells) was 69%.
For `O=C(NNc1nc2cc(F)ccc2n2cccc12)c1cnccn1` [SC144, Pyrazine-2-carboxylic acid N′-(7-fluoro-pyrrolo[1,2-a]quinoxalin-4-yl)-hydrazide], the CC50 (UACC-257 melanoma cells) was 400 nM, the CC50 (HT29 colon cancer cells) was 78 nM and the CC50 [1] was 10 nM. The CC50 (SF-295 CNS cancer cells) was 420 nM, the “organ toxicity (H&E staining of kidney, liver, heart tissues)” value (MDA-MB-435 xenografts; 4 mg/kg) was “no damage in these organs; also recorded: does not exhibit organ toxicity” and the reduced tumor growth (MDA-MB-435 xenografts; 4 mg/kg daily i.p. for five days) was 60%. For the same molecule, the “necrosis of tumor tissues” value (MDA-MB-435 xenografts; 4 mg/kg, day 70, H&E staining) was “greater than 80%”, the “tolerability, drug-related deaths” value (MDA-MB-435 xenografts; 0.3, 0.8, 4 mg/kg daily i.p. five days) was “well tolerated and did not result in drug-related deaths” and the “body weight compared to vehicle control” value (MDA-MB-435 xenografts; mouse, in vivo) was “no changes in body weight”.

— US20110034472A1, “Novel Compounds for Treatment of Cancer and Disorders Associated With Angiogenesis Function” (UNIVERSITY OF SOUTHERN CALIFORNIA, priority 2004, published 2011)
